Measured values as given in patent US20190292179A1 (BRISTOL-MYERS SQUIBB COMPANY, priority 2016, published 2019).

Legend:
HIS-TGFβR2 WT = HIS-TGFβR2 WT (Homo sapiens, UniProt P37173); assay: HTRF probe-displacement assay with HIS-TGFβR2 WT; type: binding; conditions: 1 nM HIS-TGFβR2 WT, labeled probe at Kd, 1 hour at room temperature
In short: (§1)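 Binding read as HTRF probe displacement with 1 nM HIS-tagged kinase, 0.2 nM anti-HIS antibody, labelled probe at Kd and 0.5% DMSO, 1 h at room temperature (Ex 340, Em 520/495 nm). Eleven-point dose response normalised to no-enzyme and vehicle controls; IC50 from non-linear regression.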

HIS-TGFβR1 T204D = molecular target: T1, HIS-TGFβR1 T204D (Homo sapiens, UniProt P36897, T204D); assay: HTRF probe-displacement assay with HIS-TGFβR1 T204D; type: binding; conditions: 1 nM HIS-TGFβR1 T204D, labeled probe at Kd, 1 hour at room temperature
T1 sequence (P36897 34-503 T204D): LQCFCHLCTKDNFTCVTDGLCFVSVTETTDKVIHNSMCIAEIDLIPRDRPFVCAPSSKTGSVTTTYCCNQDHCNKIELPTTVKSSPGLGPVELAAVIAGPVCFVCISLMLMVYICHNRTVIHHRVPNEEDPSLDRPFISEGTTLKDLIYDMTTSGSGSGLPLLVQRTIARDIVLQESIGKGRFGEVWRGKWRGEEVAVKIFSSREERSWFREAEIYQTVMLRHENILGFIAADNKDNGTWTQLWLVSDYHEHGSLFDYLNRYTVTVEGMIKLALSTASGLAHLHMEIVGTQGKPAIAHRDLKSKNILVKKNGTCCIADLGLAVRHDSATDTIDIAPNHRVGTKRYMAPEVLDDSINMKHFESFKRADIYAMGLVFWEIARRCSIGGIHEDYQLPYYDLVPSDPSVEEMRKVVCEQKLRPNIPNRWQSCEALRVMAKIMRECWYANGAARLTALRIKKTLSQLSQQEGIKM
In short: as §1

Sequence of HIS-TGFβR2 WT (P37173 23-567): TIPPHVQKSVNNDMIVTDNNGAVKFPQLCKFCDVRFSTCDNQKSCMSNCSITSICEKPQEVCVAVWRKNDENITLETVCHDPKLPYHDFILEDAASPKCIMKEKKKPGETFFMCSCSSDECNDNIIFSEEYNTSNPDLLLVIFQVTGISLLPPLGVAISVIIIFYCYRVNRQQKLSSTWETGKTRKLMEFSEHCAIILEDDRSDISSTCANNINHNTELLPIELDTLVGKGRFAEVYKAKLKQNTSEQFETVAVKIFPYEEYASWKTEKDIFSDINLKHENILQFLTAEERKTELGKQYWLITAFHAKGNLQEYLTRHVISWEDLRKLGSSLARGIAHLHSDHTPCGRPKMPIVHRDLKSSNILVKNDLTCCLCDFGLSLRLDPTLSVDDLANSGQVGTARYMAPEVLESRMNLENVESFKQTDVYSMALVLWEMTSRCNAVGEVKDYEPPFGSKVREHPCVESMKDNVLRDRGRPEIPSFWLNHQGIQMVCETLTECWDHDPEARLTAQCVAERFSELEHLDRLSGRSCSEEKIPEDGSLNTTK

| IC50 (HIS-TGFβR2 WT) | IC50 (HIS-TGFβR1 T204D) | Compound |
| --- | --- | --- |
| 4.95 µM | 0.003 µM | Cc1cccc(-c2nn(C)c(C(C)C)c2-c2ccc3nccn3c2)n1 [Example 119, 6-(5-isopropyl-1-methyl-3-(6-methylpyridin-2-yl)-1H-pyrazol-4-yl)imidazo[1,2-a]pyridine] |
| 0.216 µM | 0.001 µM | Cc1cccc(-c2n[nH]c(C3CC3)c2-c2ccc3ncc(C#N)n3c2)n1 [Example 121, 6-(5-cyclopropyl-3-(6-methylpyridin-2-yl)-1H-pyrazol-4-yl)imidazo[1,2-a]pyridine-3-carbonitrile] |
| 0.004 µM | 0.001 µM | Cc1cccc(-c2n[nH]c(C3CC3)c2-c2ccc3ncc(C(N)=O)n3c2)n1 [Example 122, 6-(5-cyclopropyl-3-(6-methylpyridin-2-yl)-1H-pyrazol-4-yl)imidazo[1,2-a]pyridine-3-carboxamide] |
| 0.469 µM | 0.001 µM | Cc1cccc(-c2n[nH]c(C3CC3)c2-c2ccc3nccn3c2)n1 [Example 123, 6-(5-cyclopropyl-3-(6-methylpyridin-2-yl)-1H-pyrazol-4-yl)imidazo[1,2-a]pyridine] |
| 2.06 µM | 0.001 µM | CCc1[nH]nc(-c2cccc(C)n2)c1-c1ccc2ncc(C#N)n2c1 [Example 124, 6-(5-ethyl-3-(6-methylpyridin-2-yl)-1H-pyrazol-4-yl)imidazo[1,2-a]pyridine-3-carbonitrile] |
| 0.013 µM | 0.001 µM | CCc1[nH]nc(-c2cccc(C)n2)c1-c1ccc2ncc(C(N)=O)n2c1 [Example 125, 6-(5-ethyl-3-(6-methylpyridin-2-yl)-1H-pyrazol-4-yl)imidazo[1,2-a]pyridine-3-carboxamide] |
| 3.15 µM | 0.001 µM | CCc1[nH]nc(-c2cccc(C)n2)c1-c1ccc2nccn2c1 [Example 126, 6-(5-ethyl-3-(6-methylpyridin-2-yl)-1H-pyrazol-4-yl)imidazo[1,2-a]pyridine] |
| 0.128 µM | 0.001 µM | CCc1c(-c2ccc3ncc(C(N)=O)n3c2)c(-c2cccc(C)n2)nn1C [Example 127, 6-(5-ethyl-1-methyl-3-(6-methylpyridin-2-yl)-1H-pyrazol-4-yl)imidazo[1,2-a]pyridine-3-carboxamide] |
| 13.1 µM | 0.027 µM | OCc1[nH]nc(-c2ccc(F)cc2)c1-c1ccc2nccn2c1 [Example 134, (3-(4-fluorophenyl)-4-(imidazo[1,2-a]pyridin-6-yl)-1H-pyrazol-5-yl)methanol] |
| 4.47 µM | 0.001 µM | Cc1cccc(-c2n[nH]c(CO)c2-c2ccc3nccn3c2)n1 [Example 141, (4-(imidazo[1,2-a]pyridin-6-yl)-3-(6-methylpyridin-2-yl)-1H-pyrazol-5-yl)methanol] |
